Results taken from paper PMC13334477 (RSC Medicinal Chemistry, 2026).
Where “and” joins values, the source holds several entries; their conditions need not be identical. Identical values can stand only once. Like-named read-outs stand apart in the source and are kept apart here.

How the values were obtained:
[1] = system: LTR4-FT (parallel DNA G4); assay: FRET melting assay, LTR4-FT; format: binding, HIV-1; conditions: ligand 1 μM, DNA 0.2 μM
Protocol: (§1) Doubly labelled oligonucleotides with fluorescein and TAMRA were purchased lyophilized and RP-cartridge purified from Eurogentec (Kanaka Eurogentec, Seraing, Belgium). FRET melting experiments were run on Stratagene Mx3005P real-time PCR equipment in 96-well plates on the DNA sequences listed Table 1. Experiments were performed in 10 mM lithium cacodylate buffer (pH 7.2) and 10 mM KCl and 90 mM LiCl as previously described.[45,46] The DNA concentration was 0.2 μM. The stabilization (ΔT1/2) induced by compounds was calculated as the difference between the Tm of the nucleic acid alone and that measured with a ligand concentration of 1 μM. Data are presented as averages of three independent measurements, each conducted in duplicate (λexc = 492 nm, λem = 516 nm, T interval = 25–95 °C, ramp: 25 °C for 5 min, then 1 °C min^−1, measurements every 1 °C, 8× magnification of the fluorescence signal). The G4 selectivity of the ligands with respect to the duplex was evaluated by determining the Tm values in the presence of 0, 3 or 10 μM of the duplex competitor ds26.
(§2) In this assay, we performed thermal denaturation experiments by heating and recording the fluorescence of DNA oligonucleotides doubly labelled with fluorescein and TAMRA fluorophores (Fig. 3 and S7). Ligand binding to the G4 stabilises the structure, resulting in an increase in the half-dissociation temperature of the structure (ΔT1/2). As a first approximation, the higher the ΔT1/2 (ΔT1/2 higher), the higher the affinity of the ligand for the target.[45]
(§3) The fluorescently labeled oligonucleotides were dissolved at a concentration of 0.2 μM in 10 mM lithium cacodylate buffer (pH 7.2) with 10 mM KCl and 90 mM LiCl. […] E) Radar plot representation that summarizes the FRET-melting results (ΔT1/2 (°C)) for each ligand in the presence of HIVpro1-FT (green), HIVpro2-FT (grey), LTR4-FT (bleu), and Htel-FT (red). Data are the results of at least three independent experiments in which each data point was performed in duplicate.

[2] = system: HIVpro2-FT (hybrid DNA G4); assay: FRET melting assay, HIVpro2-FT; format: binding, HIV-1; conditions: ligand 1 μM, DNA 0.2 μM
Protocol: as §1, §2, §3

[3] = target: rLTR4 RNA G4; assay: Native ESI-MS, rLTR4; format: binding, HIV-1; conditions: 10 μM RNA, 20 μM ligand, 100 mM ammonium acetate
Protocol: (§4) Oligonucleotides were purchased lyophilized and RP-cartridge purified from Eurogentec (Kanaka Eurogentec, Seraing, Belgium), then buffer exchanged with ammonium acetate (5 M; Sigma-Aldrich, Saint-Quentin-Fallavier, France) using Amicon Ultra (3 K cut-off; Merck Millipore, Cork, Ireland). The concentrations of the initial stock solutions of DNA/RNA (∼1 mM) were measured by UV absorbance at 260 nm. Sample solutions were prepared by diluting the appropriate volume of oligonucleotide stock solutions to reach 10 μM of DNA/RNA and 20 μM of ligand, in 100 mM ammonium acetate. The solutions were incubated for 16 h at 4 °C before analysis by mass spectrometry. […] These parameters ensured a good signal intensity without disrupting noncovalent complexes, which was verified using d[G4T4G4]2 as a control. The presented spectra of all DNA/RNA used in this work (Fig. 5, S9 and S10) result from 8 min accumulations. The abundance of each species, M, M + 1L, M + 2L and M + 3L complexes, where M is a monomer oligonucleotide and L is a ligand, was determined from their peak area signals (A), from the sum of the −4, −5 and −6 charge states for DNA and from the sum of the −5, −6 and −7 charge states for RNA, assuming that their response factors are equal. The molar concentrations were then calculated knowing the total amount of oligonucleotide [M]tot: [drawing 1] [drawing 2] [drawing 3] [drawing 4] The concentration of the free ligand, [L]free, was determined from its total concentration [L]tot:[L]free = [L]tot − [M + 1L] − 2[M + 2L] − 3[M + 3L]Apparent consecutive dissociation constants (Kd1, Kd2 and Kd3) were calculated by using the following equations: [drawing 5] [drawing 6] [drawing 7]
(§5) We further analysed the formation of the DBA/G4 complexes by native electrospray ionization mass spectrometry (ESI-MS). We initially attempted to analyze DBA binding to the primary G4 targets from HIV-1 (HIVpro1, HIVpro2, LTR4 and rLTR4 RNA). […] These sequences span the major G4 topological classes and provide a representative assessment of DBA binding across diverse G4 architectures. We also included two DNA duplex controls (DK100 and DK66) to evaluate binding selectivity. This ESI-MS approach enables direct determination of binding stoichiometry, quantification of each species in solution, and calculation of dissociation constants (Kd) from the relative abundances of free and bound forms.[88,97]
(§6) In the ESI-MS conditions, the rLTR4 G4 (10 μM) forms a dimeric structure. […] Among the six DNA and RNA tested here (Fig. 5B, S9 and S10) only rLTR4 presented 1 : 3 G4/DBA complexes. In all cases but one, the 1 : 1 stoichiometry represents the major species in solution while for rLTR4 it is the 1 : 2 (green). […] For TG4T tetramolecular G4 or G4T4G4 bimolecular G4 only 1 : 1 and 1 : 2 complexes were detected (Fig. S9A and S10A). […] The weakest binding was obtained for the G4T4G4 antiparallel G4 and Htel sequence with Kd1s ranging from 11 μM for to 500 μM (Table 2).

[4] = target: Htel DNA G4 (human telomeric); assay: Native ESI-MS, Htel; format: binding; conditions: 10 μM DNA, 20 μM ligand, 100 mM ammonium acetate
Protocol: as §4, §5, §6

[5] = system: TG4T (DNA, G4) TGGGGT; assay: native ESI-MS; conditions: 100 mM ammonium acetate (NH4+), no K+; apparent, site 1 of 2; 10 μM DNA, 20 μM ligand, 4 °C incubation
[6] = system: HIV-1; assay: microbe, parasite or virus in culture; conditions: Human immunodeficiency virus 1, HeLaP4, read-out: IC50 (infectivity inhibition), native HIV-1, MOI 1, compound added 30 min before infection, 24 h, β-gal reporter

| Compound | ΔT1/2 LTR4 ([1]; +10µM ds26) [°C] | ΔT1/2 LTR4 ([1]; No ds26) | ΔT1/2 HIVpro2 ([2]; +10µM ds26) [°C] | ΔT1/2 HIVpro2 ([2]; No ds26) | Kd ([3]; read-out: Kd1 rLTR4) [µM] | Kd ([3]; read-out: Kd2 rLTR4) [µM] | Kd ([3]; read-out: Kd3 rLTR4) [µM] | Kd ([4]; read-out: Kd1 Htel) [µM] | Kd ([4]; read-out: Kd2 Htel) [µM] | Kd1 [5] [µM] | IC50 [6] [µM] |
| --- | --- | --- | --- | --- | --- | --- | --- | --- | --- | --- | --- |
| COc1ccc2c(ccc3c2cc2c4ccc(OC)cc4ccc2[n+]3-c2ccccc2)c1 [DBA1] | 10±0.5 | 11±0.2 °C | 3.3±0.4 | 4.2±1.4 °C | 20.2 | 0.55 | 22.8 | 497 | 103 | 14.69 | 0.9 |
| COC(=O)c1ccc(-[n+]2c3ccc4cc(OC)ccc4c3cc3c4ccc(OC)cc4ccc32)cc1 [DBA2] | 7.3±0.4 | 9.4±0.3 °C | 2.0±0.4 | 2.1±0.2 °C and 2.1 °C | 10.9 | 0.69 |  | 41.1 | 35.3 | 6.09 | 3.1 |
| COc1ccc(-[n+]2c3ccc4cc(OC)ccc4c3cc3c4ccc(OC)cc4ccc32)cc1 [DBA3] | 10.2±0.3 | 10.6±0.7 °C | 3.8±0.6 | 3.5±0.2 °C and 3.5 °C | 12.2 | 0.14 | 31 | 52.4 | 27.2 | 13.62 | 4.3 |
| COc1ccc2c(ccc3c2cc2c4ccc(OC)cc4ccc2[n+]3-c2ccc([N+](=O)[O-])cc2)c1 [DBA4] | 10±0.7 | 11±0.5 °C and 11 °C | 3.0±0.8 | 3.8±0.3 °C and 3.8 °C | 10.4 | 0.5 | 21.3 | 11.2 | 55.6 | 5.42 | 1 |
| c1ccc(-[n+]2c3ccc4ccccc4c3cc3c4ccccc4ccc32)cc1 [DBA5] | 6.0±1.3 |  | 1.7±0.9 | 1.9±0.1 °C | 4.99 | 10 | 1.47 | 14.5 | 24.7 | 21.57 |  |
